Where two headings read alike, the source gives them in different places.
Experiments:
[1] = tested on: capsaicin induced hypothermie; experiment: Hypothermie assay in the mouse (capsaicin induced hypothermie); type: in vivo
Description: V. Hypothermie Assay an der Maus
Male NMRI mice (weight 25-35 gram, supplier IFFA CREDO, Bruxelles, Belgium) are used in the hypothermie assay. The animals are kept under standardized conditions: light/darkness interval (6:00 to 18:00 light; 18:00 to 6:00 Uhr darkness), room temperature 19-22° C., relative humidity 35-70%, 15 times per hour change of compartment air, airflow <0.2 m/sec. The animals were fed on a standardized diet (ssniff diet, ssniff Spezialdiäten GmbH, Soest, Germany) and tap water. Water and diet were detracted during the experiment. All animals were used once in the experiment. The animals were allowed to adapt to the experimental conditions for at least 5 days.
The acute application of capsaicin (VR-1 agonist) leads to a decrease of the core body temperature in rat and mice via stimulation of heat sensors. Only compounds which act as specific VR-1-receptor antagonists can antagonize the capsaicin induced hypothermie. In contrast, morphine induced hypothermie is not antagonized by VR-1 antagonists. Thus, this experiment is suitable for the determination of compounds that act as VR1-antagonists via their effect on the core body temperature.
For the determination of the core body temperature a digital thermometer was used (Thermalert TH-5, physitemp, Clifton N.J., USA). The measuring head was inserted into the rectum.
The individual basis value is determined by measuring the body temperature twice in an interval of about half an hour. […] […] The test compound is given 10 min (i.v.) or 15 min (p.o.), respectively, before application of capsaicin. The body temperature is determined 7.5/15 and 30 min after application of capsaicin (i.v.+i.p.) or 15/30/60/90/120 min after application of capsaicin (p.o.+i.p.), respectively. In addition, another group of mice is only given the test compound or a vehicle control.
The measuring points are given as average values±S.E.M. of the absolute values. The antagonistic effect is given in percent of inhibition of capsaicin induced hypothermie.

[2] = tested on: formaldehyde induced nociceptive behaviour; experiment: Formaldehyde test in mice, second (late) phase; type: in vivo, mouse; settings: for inhibition in vivo at 1 mg/kg / inhibition in vivo at 0.1 mg/kg / inhibition in vivo at 0.3 mg/kg: read-out: inhibition formaldehyde test (n = 10)
vanilloid receptor (VR1) = target: T1, vanilloid receptor (VR1) (Homo sapiens, UniProt Q8NER1); experiment: FLIPR Ca2+ influx assay on CHO K1 cells transfected with the VR1 gene (pharmacological method II); type: cell-based
T1 construct: expressed in transfected cells; host or cells: CHO K1 cells (ECACC), stably transfected
T1 sequence (Q8NER1 whole entry): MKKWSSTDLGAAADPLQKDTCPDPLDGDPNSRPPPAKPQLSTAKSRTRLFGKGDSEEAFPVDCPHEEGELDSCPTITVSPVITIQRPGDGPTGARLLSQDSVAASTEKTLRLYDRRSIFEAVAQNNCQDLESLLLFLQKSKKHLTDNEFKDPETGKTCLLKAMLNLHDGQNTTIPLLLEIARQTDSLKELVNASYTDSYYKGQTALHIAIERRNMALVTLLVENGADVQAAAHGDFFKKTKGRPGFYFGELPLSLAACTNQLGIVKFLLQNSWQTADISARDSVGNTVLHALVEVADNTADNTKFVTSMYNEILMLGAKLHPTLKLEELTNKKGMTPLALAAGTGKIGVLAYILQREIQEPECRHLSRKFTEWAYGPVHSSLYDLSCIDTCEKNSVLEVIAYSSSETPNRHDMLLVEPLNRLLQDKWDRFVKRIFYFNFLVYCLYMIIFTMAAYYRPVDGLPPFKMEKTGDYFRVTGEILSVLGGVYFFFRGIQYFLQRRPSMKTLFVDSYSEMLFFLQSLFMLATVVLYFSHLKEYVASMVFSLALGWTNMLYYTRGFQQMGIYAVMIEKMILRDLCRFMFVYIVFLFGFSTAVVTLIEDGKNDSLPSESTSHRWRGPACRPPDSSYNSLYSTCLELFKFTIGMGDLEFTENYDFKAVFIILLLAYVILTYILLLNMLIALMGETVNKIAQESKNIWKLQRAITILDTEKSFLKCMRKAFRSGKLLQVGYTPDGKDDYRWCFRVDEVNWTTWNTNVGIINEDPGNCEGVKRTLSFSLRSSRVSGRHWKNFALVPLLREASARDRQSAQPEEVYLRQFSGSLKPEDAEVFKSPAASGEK

[3] = target: T2, vanilloid receptor 1 (VR1/TRPV1) of the rat species (Rattus norvegicus, UniProt O35433); experiment: FLIPR Ca2+ influx assay on rat dorsal root ganglia cells (pharmacological method I); type: cell-based
T2 construct: The spinal column is removed from decapitated rats; from tissue; host or cells: primary cells dissociated from rat dorsal root ganglia
T2 sequence (O35433 whole entry): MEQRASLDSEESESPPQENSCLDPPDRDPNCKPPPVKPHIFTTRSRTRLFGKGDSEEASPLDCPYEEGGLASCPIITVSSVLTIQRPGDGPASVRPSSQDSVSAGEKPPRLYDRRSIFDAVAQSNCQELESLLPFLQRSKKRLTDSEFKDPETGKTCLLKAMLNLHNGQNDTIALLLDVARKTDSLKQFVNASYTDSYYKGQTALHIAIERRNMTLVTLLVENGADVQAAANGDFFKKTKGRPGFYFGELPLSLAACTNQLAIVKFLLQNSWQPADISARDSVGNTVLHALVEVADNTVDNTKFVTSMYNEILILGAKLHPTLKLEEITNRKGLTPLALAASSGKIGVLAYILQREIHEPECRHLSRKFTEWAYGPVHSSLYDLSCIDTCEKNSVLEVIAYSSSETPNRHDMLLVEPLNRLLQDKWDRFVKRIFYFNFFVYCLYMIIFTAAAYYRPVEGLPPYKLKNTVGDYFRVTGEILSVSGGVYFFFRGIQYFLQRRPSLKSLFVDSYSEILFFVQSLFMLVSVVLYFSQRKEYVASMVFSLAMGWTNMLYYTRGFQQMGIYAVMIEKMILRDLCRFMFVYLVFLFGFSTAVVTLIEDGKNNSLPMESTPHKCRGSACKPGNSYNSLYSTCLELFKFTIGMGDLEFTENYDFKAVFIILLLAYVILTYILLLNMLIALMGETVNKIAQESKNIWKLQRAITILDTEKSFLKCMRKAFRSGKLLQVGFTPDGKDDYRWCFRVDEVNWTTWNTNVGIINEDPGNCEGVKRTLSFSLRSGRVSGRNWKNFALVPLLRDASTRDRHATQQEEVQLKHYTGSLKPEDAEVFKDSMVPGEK
How it was run: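 Primary rat dorsal root ganglion cells loaded with 2 μM Fluo-4, Ca2+ influx read on FLIPR as peak fluorescence. Triplicates, at least 3 independent experiments.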

VR1/TRPV1 receptor = VR1/TRPV1 receptor (Homo sapiens, UniProt Q8NER1); experiment: IC50 (human) after pH stimulus; type: cell-based
Sequence of VR1/TRPV1 receptor (Q8NER1 whole entry): as the sequence (Q8NER1 whole entry) above

[4] = 0.3 mg/kg body weight po, mouse, read-out: inhibition hypothermie (n = 5)
[5] = 1 mg/kg body weight po, mouse, read-out: inhibition hypothermie (n = 5)
[6] = 0.1 mg/kg body weight po, mouse
[7] = 0.3 mg/kg body weight po, mouse
[8] = Table 2, displacement of capsaicin (100 nM), Cheng-Prusoff, read-out: Ki (human)
[9] = Table 2, displacement of capsaicin (100 nM), Cheng-Prusoff, read-out: Ki (rat)
[10] = table 4, capsaicin, read-out: Ki (human) Cap.
[11] = Mus musculus, po, read-out: inhibition hypothermie (n = 5)
[12] = table 4, capsaicin, read-out: Ki (rat) Cap.

| Structure (SMILES) | Ki (vanilloid receptor (VR1); [10]) | IC50 (VR1/TRPV1 receptor; table 4) | Ki [3, 12] | inhibition in vivo at 0.3 mg/kg [1, 4] | inhibition in vivo at 0.3 mg/kg [2, 7] | further results |
| --- | --- | --- | --- | --- | --- | --- |
| CC(C(=O)NCc1ccc(C(F)(F)F)nc1OCCC(C)(C)C)c1ccc(NS(C)(=O)=O)c(F)c1 (stereo not drawn) [Compound 125] | – | – | – | 37% | – | inhibition in vivo at 1 mg/kg [1, 5]: 32%; inhibition in vivo at 3 mg/kg ([1]; 3 mg/kg body weight po, mouse, read-out: inhibition hypothermie (n = 5)): 65%; inhibition in vivo at 1 mg/kg ([2]; 1 mg/kg body weight po, mouse): 19% |
| CC(C(=O)NCc1ccc(C(F)(F)F)nc1N1CCC(N2CCCC2)CC1)c1ccc(NS(C)(=O)=O)c(F)c1 (stereo not drawn) [Compound 165] | – | – | – | – | – | inhibition at 10 µM (vanilloid receptor (VR1); CHO-K1, @ 10 μM, read-out: inhibition in percent, Ki (human) Cap.): 0.5%; inhibition in vivo at 1 mg/kg ([2]; 1 mg/kg body weight po, mouse): 15%; inhibition at 10 µM ([3]; @ 10 μM, read-out: inhibition in percent, Ki (rat) Cap.): 4% |
| CC(C(=O)NCc1ccc(C(F)(F)F)cc1N1CCCCCCC1)c1ccc(NS(C)(=O)=O)c(F)c1 (stereo not drawn) [Compound 217] | – | – | – | 97% | – | inhibition in vivo at 1 mg/kg ([2]; 1 mg/kg body weight po, mouse): 37% |
| CC(C(=O)NCc1ccc(C(C)(C)C)nc1OC1CCCC1)c1ccc(NS(C)(=O)=O)c(F)c1 (stereo not drawn) [Compound 234] | – | – | – | 31% | 41% | inhibition in vivo at 0.1 mg/kg [2, 6]: 28%; inhibition in vivo at 1 mg/kg ([2]; 1 mg/kg body weight po, mouse): 44% |
| CC(C(=O)NCc1ccc(C(F)(F)F)cc1N1CCCC1)c1ccc(NS(C)(=O)=O)c(F)c1 (stereo not drawn) [Example 34, 2-(3-fluoro-4-(methylsulfonamido)phenyl)-N-(2-(pyrrolidin-1-yl)-4-(trifluoromethyl)benzyl)propanamide] | – | – | – | – | – | Ki (vanilloid receptor (VR1); [8]): 2.3 nM; IC50 (VR1/TRPV1 receptor; Table 2): 121 nM; inhibition in vivo at 0.1 mg/kg [2, 6]: 6%; Ki [3, 9]: 2.5 nM |
| CC(C(=O)NCc1ccc(C(F)(F)Cl)nc1N1CCCCC1)c1ccc(NS(C)(=O)=O)c(F)c1 (stereo not drawn) [Example 71, N-((6-(chlorodiflouromethyl)-2-(piperidin-1-yl)pyridin-3-yl)methyl)-2-(3-fluoro-(4-methylsulfonamido)phenyl)propanamide] | – | – | – | – | – | Ki (vanilloid receptor (VR1); [8]): 1.3 nM; IC50 (VR1/TRPV1 receptor; Table 2): 22.4 nM; inhibition formaldehyde test (n = 10) [2, 7]: 0.3 po 0%; Ki [3, 9]: 0.8 nM |
| CC(C(=O)NCc1ccc(C(F)(F)F)nc1OC1CCCCC1)c1ccc(NS(C)(=O)=O)c(F)c1 (stereo not drawn) [Example 76] | – | – | – | – | 12% | Ki (vanilloid receptor (VR1); [8]): 1.3 nM; IC50 (VR1/TRPV1 receptor; Table 2): 43.4 nM; Ki ([3]; Ki (rat), Table 2, displacement of capsaicin (100 nM), Cheng-Prusoff): 1.5 nM |
| CC1CCN(c2nc(C(F)(F)F)ccc2CNC(=O)C(C)c2ccc(NS(C)(=O)=O)c(F)c2)CC1 (stereo not drawn) [Example 80, 2-(3-fluoro-4-methylsulfonamido-phenyl)-N-(2-4-methylpiperidin-1-yl-6-trifluoromethyl-pyridin-3-ylmethyl)-propionamide] | 0.3 nM | 5.4 nM | 0.6 nM | – | 58% | inhibition in vivo at 0.3 mg/kg [1, 11]: 66% |
| CC1CCN(c2cc(C(F)(F)F)ccc2CNC(=O)C(C)c2ccc(NS(C)(=O)=O)c(F)c2)CC1 (stereo not drawn) [Example 82, 2-(3-Fluor-4-(methylsulfonamido)phenyl)-N-(2-(4-methylpiperidin-1-yl)-4-(trifluoromethyl)benzyl)propanamide] | 0.9 nM | 16.2 nM | 0.7 nM | – | – | inhibition hypothermie (n = 5) [1, 7]: 0.3 po 53%; inhibition formaldehyde test (n = 10) [2, 7]: 0.3 po 39% |
| CCCCOc1cc(C(C)(C)C)ccc1CNC(=O)C(C)c1ccc(NS(C)(=O)=O)c(F)c1 (stereo not drawn) [Example 108, N-(2-butoxy-4-tert-butyl-benzyl)-2-(3-fluoro-4-methylsulfonamido-phenyl)-propionamide] | 1.4 nM | 114 nM | 0.6 nM | 38% | 15% | – |
| CCCCOc1nc(C(F)(F)Cl)ccc1CNC(=O)C(C)c1ccc(NS(C)(=O)=O)c(F)c1 (stereo not drawn) [Example 140, N-[2-butoxy-6-(chlor-difluor-methyl)-pyridin-3-ylmethyl]-2-(3-fluoro-4-methylsulfonamido-phenyl)-propionamide] | 0.7 nM | 9.2 nM | 0.4 nM | – | – | inhibition formaldehyde test (n = 10) [2, 6]: 0.1 po 56% |
| CC(C)CCOc1nc(C(C)(C)C)ccc1CNC(=O)C(C)c1ccc(NS(C)(=O)=O)c(F)c1 (stereo not drawn) [Example 329, N-[6-tert-butyl-2-(3-methyl-butoxy)-pyridin-3-ylmethyl]-2-(3-fluoro-4-methylsulfonamido-phenyl)-propionamide] | 0.8 nM | 179 nM | – | – | – | inhibition in vivo at 1 mg/kg [1, 5]: 7%; inhibition in vivo at 1 mg/kg ([2]; 1 mg/kg body weight po, mouse): 54% |
| CC(C(=O)NCc1ccc(C(F)(F)F)nc1N1CCC(c2ccccc2)(N(C)C)CC1)c1ccc(NS(C)(=O)=O)c(F)c1 (stereo not drawn) [Example 330, N-(4-dimethylamino-4-phenyl-6′-trifluoromethyl-3,4,5,6-tetrahydro-2H-[1,2′]bipyridinyl-3′-ylmethyl)-2-(3-fluoro-4-methylsulfonamido-phenyl)-propionamide] | – | – | – | – | – | inhibition in vivo at 1 mg/kg [1, 11]: 7%; inhibition in vivo at 1 mg/kg ([2]; Mus musculus, po): 54% |

Now from value to compound, other results behind:

| Ki (vanilloid receptor (VR1); [10]) | IC50 (VR1/TRPV1 receptor; table 4) | Ki [3, 12] | Structure (SMILES) | inhibition in vivo at 0.3 mg/kg [1, 4] | inhibition in vivo at 0.3 mg/kg [2, 7] | further results |
| --- | --- | --- | --- | --- | --- | --- |
| 0.3 nM | 57.1 nM | 5 nM | CC(C(=O)NCc1ccc(C(F)(F)F)nc1-c1cccs1)c1ccc(NS(C)(=O)=O)c(F)c1 (stereo not drawn) [Example 88, 2-(3-fluoro-4-methylsulfonamido-phenyl)-N-((6-(trflluoromethyl)-2-(thiophen-2-yl)pyridin-3-yl)methyl)-propionamide] | 38% | 4% | – |
| 20.4 nM | 260 nM | 47 nM | CC(C(=O)NCc1ccc(C(F)(F)F)nc1NC1CCCCC1)c1ccc(NS(C)(=O)=O)c(F)c1 (stereo not drawn) [Example 90, N-(2-cyclohexylamino-6-trifluoromethyl-pyridin-3-ylmethyl)-2-(3-fluoro-4-methylsulfonamido-phenyl)-propionamide] | 81% | 46% | – |
| 2.8 nM | – | 4.9 nM | CC(C(=O)NCc1ccc(C(F)(F)F)nc1N1CCCC1)c1ccc(NS(C)(=O)=O)c(Br)c1 (stereo not drawn) [Example 103, 2-(3-bromo-4-methylsulfonamido-phenyl)-N-(2-pyrrolidin-1-yl-6-trifluoromethyl-pyridin-3-ylmethyl)-propionamide] | 39% | 36% | inhibition at 10 µM (VR1/TRPV1 receptor; @ 10 μM, read-out: inhibition in percent, IC50 (human) after pH stimulus): 16% |
| 9.1 nM | 293 nM | 6.6 nM | CCCCNc1nc(C(F)(F)F)ccc1CNC(=O)C(C)c1ccc(NS(C)(=O)=O)c(F)c1 (stereo not drawn) [Example 116, N-(2-butylamino-6-trifluoromethyl-pyridin-3-ylmethyl)-2-(3-fluoro-4-methylsulfonamido-phenyl)-propionamide] | 21% | – | inhibition in vivo at 0.1 mg/kg [2, 6]: 39% |
| 0.5 nM | 23.5 nM | 0.5 nM | CC(C(=O)NCc1ccc(C(F)(F)F)nc1-c1ccc(C(C)(C)C)cc1)c1ccc(NS(C)(=O)=O)c(F)c1 (stereo not drawn) [Example 117] | 70% | 5% | – |
| 0.9 nM | 101 nM | 1.2 nM | CC(C(=O)NCc1ccc(C(F)(F)F)nc1SC1CCCCC1)c1ccc(NS(C)(=O)=O)c(F)c1 (stereo not drawn) [Example 126] | 0% | – | inhibition in vivo at 0.1 mg/kg [2, 6]: 20% |
| 63.3 nM | 1320 nM | 22.4 nM | CC(C(=O)NCc1ccc(C(F)(F)F)nc1-c1ccccc1F)c1ccc(NS(C)(=O)=O)c(F)c1 (stereo not drawn) [Example 150, 2-(3-fluoro-4-methylsulfonamido-phenyl)-N-[2-(2-fluoro-phenyl)-6-trifluoromethyl-pyridin-3-ylmethyl]-propionamide] | – | 17% | – |
| – | – | 1.9 nM | CC(C(=O)NCc1ccc(C(F)(F)F)nc1OCCc1ccccc1)c1ccc(NS(C)(=O)=O)c(F)c1 (stereo not drawn) [Example 178, 2-(3-fluoro-4-methylsulfonamido-phenyl)-N-(2-phenethyloxy-6-trifluoromethyl-pyridin-3-ylmethyl)-propionamide] | 42% | 16% | – |

Reference: patent US8710233B2 (Gruenenthal GmbH, priority 2005, dated 2014)
